Laboratory results published in ChEMBL document CHEMBL4507259 (2021).

Key:
[1] = tested on: Tyrosine-protein kinase ABL1 (Homo sapiens), P00519 [Q252H]; conditions: Compound concentration 1000.0 nM
[2] = target: 5-hydroxytryptamine receptor 1B (Homo sapiens) (UniProt P28222); conditions: Compound concentration 10.0 uM
[3] = target: Mitogen-activated protein kinase kinase kinase 6 (Homo sapiens) (UniProt O95382); conditions: Compound concentration 1000.0 nM
[4] = target: Mitogen-activated protein kinase kinase kinase 14 (Homo sapiens) (UniProt Q99558); conditions: Compound concentration 1000.0 nM
Mitogen-activated protein kinase kinase kinase 14 (Homo sapiens), sequence (Q99558 whole entry, looked up): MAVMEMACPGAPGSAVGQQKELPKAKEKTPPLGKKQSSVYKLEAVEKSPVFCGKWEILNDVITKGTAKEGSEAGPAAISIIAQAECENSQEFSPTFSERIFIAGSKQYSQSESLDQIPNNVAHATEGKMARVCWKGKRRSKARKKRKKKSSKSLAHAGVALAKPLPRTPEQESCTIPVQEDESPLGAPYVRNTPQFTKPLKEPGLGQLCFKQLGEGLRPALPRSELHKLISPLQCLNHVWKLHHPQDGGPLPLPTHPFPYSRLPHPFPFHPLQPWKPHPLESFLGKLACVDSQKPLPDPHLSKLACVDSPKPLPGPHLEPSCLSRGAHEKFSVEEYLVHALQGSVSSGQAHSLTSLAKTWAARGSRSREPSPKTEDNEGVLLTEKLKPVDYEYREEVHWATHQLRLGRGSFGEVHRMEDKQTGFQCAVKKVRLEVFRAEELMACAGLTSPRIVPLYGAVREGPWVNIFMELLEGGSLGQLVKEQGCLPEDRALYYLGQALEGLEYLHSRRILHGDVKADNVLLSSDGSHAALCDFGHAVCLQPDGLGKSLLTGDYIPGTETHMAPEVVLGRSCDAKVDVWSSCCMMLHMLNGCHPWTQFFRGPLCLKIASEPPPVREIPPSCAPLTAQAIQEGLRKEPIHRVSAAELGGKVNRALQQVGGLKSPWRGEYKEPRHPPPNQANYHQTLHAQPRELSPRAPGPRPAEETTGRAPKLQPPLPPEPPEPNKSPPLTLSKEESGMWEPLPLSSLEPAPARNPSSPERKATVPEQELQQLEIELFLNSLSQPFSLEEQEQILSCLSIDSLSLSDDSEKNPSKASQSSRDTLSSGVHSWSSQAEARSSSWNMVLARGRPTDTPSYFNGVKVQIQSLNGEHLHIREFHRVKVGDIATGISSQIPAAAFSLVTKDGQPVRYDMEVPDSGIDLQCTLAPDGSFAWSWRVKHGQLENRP

[5] = target: RAC-alpha serine/threonine-protein kinase (Homo sapiens) (UniProt P31749); conditions: Compound concentration 1000.0 nM
[6] = target: TGF-beta receptor type-1 (Homo sapiens) (UniProt P36897); conditions: Compound concentration 1000.0 nM
[7] = target: Aurora kinase B (Homo sapiens) (UniProt Q96GD4); conditions: Compound concentration 1000.0 nM
[8] = target: 5'-AMP-activated protein kinase catalytic subunit alpha-1 (Homo sapiens) (UniProt Q13131); conditions: Compound concentration 1000.0 nM
[9] = target: Sigma non-opioid intracellular receptor 1 (Homo sapiens) (UniProt Q99720); conditions: Compound concentration 10.0 uM
[10] = target: Non-receptor tyrosine-protein kinase TNK1 (Homo sapiens) (UniProt Q13470); conditions: Compound concentration 1000.0 nM
[11] = target: SNF-related serine/threonine-protein kinase (Homo sapiens) (UniProt Q9NRH2); conditions: Compound concentration 1000.0 nM
[12] = target: Serine/threonine-protein kinase Nek5 (Homo sapiens) (UniProt Q6P3R8); conditions: Compound concentration 1000.0 nM
Serine/threonine-protein kinase Nek5 (Homo sapiens), sequence (Q6P3R8 whole entry): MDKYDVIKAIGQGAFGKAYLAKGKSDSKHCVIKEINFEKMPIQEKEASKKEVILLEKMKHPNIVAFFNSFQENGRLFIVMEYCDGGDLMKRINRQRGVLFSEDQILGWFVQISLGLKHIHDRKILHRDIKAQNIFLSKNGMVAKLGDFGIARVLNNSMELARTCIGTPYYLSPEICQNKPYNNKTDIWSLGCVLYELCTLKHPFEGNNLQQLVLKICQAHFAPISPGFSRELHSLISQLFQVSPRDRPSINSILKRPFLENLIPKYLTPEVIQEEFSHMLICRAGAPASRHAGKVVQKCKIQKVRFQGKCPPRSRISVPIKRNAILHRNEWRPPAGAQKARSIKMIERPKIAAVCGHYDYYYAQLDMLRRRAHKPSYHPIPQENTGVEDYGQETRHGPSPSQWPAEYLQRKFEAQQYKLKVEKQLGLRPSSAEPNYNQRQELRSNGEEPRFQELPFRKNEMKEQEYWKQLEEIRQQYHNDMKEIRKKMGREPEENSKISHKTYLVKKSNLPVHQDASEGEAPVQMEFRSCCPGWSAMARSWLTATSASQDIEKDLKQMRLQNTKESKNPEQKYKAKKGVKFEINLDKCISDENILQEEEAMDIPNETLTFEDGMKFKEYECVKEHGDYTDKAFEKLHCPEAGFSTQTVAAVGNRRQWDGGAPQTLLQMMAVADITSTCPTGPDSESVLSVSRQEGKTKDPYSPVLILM

[13] = target: Cyclin-dependent kinase 4 (Homo sapiens) (UniProt P11802); conditions: Compound concentration 1000.0 nM
[14] = target: T1, 5-hydroxytryptamine receptor 3A (Homo sapiens) (UniProt P46098); experiment: 5-HT3 (h) CEREP ligand profiling; conditions: filed as antagonist, Compound concentration 10.0 uM
T1 sequence (whole entry): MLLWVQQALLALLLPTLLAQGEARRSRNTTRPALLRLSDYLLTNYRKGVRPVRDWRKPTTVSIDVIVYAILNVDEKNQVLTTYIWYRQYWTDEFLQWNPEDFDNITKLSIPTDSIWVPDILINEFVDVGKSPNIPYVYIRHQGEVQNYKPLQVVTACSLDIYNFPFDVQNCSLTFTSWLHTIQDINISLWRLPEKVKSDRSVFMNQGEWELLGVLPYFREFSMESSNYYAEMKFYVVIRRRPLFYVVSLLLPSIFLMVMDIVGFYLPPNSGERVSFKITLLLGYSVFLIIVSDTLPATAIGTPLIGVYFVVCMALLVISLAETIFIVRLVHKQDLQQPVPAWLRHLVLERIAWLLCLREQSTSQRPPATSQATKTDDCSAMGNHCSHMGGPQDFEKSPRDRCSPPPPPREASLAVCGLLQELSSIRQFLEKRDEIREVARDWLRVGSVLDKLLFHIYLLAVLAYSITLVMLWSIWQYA

[15] = target: Cyclin-dependent kinase 16 (Homo sapiens) (UniProt Q00536); conditions: Compound concentration 1000.0 nM
Cyclin-dependent kinase 16 (Homo sapiens), sequence (Q00536 whole entry): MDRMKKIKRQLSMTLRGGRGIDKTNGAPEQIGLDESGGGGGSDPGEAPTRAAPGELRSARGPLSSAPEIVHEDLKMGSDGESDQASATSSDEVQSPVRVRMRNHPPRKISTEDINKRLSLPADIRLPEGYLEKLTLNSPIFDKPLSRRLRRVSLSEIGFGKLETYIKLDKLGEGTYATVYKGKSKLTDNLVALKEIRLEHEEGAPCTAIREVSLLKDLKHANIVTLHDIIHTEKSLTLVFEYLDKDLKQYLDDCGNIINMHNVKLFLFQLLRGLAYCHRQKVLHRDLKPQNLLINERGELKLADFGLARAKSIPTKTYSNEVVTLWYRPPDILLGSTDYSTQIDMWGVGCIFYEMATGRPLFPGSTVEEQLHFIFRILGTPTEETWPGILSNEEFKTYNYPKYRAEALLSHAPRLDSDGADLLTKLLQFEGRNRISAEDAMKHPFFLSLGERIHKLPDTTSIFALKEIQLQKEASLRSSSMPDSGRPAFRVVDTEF

[16] = target: 5-hydroxytryptamine receptor 2A (Homo sapiens) (UniProt P28223); experiment: 5-HT2A (h) CEREP ligand profiling; conditions: filed as antagonist, Compound concentration 10.0 uM
5-hydroxytryptamine receptor 2A (Homo sapiens), sequence (P28223 whole entry, canonical isoform): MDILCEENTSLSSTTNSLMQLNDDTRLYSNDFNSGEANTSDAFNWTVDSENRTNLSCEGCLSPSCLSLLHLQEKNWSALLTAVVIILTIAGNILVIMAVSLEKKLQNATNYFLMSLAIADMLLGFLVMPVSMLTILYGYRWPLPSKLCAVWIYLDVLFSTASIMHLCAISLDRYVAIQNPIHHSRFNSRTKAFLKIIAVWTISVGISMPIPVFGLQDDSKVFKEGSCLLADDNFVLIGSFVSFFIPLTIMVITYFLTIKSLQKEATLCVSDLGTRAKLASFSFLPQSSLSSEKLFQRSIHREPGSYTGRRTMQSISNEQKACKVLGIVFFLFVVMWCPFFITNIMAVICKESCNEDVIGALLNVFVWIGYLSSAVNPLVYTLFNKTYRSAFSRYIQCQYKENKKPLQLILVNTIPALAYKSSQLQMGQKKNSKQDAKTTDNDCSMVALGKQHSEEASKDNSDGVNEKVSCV

[17] = target: Casein kinase I isoform gamma-3 (Homo sapiens) (UniProt Q9Y6M4); conditions: Compound concentration 1000.0 nM
[18] = target: Discoidin domain-containing receptor 2 (Homo sapiens) (UniProt Q16832); conditions: Compound concentration 1000.0 nM
[19] = target: Serine/threonine-protein kinase 24 (Homo sapiens) (UniProt Q9Y6E0); conditions: Compound concentration 1000.0 nM
[20] = target: Serine/threonine-protein kinase 38-like (Homo sapiens) (UniProt Q9Y2H1); conditions: Compound concentration 1000.0 nM
[21] = target: Ribosomal protein S6 kinase beta-1 (Homo sapiens) (UniProt P23443); conditions: Compound concentration 1000.0 nM
Ribosomal protein S6 kinase beta-1 (Homo sapiens), sequence (P23443 whole entry, looked up): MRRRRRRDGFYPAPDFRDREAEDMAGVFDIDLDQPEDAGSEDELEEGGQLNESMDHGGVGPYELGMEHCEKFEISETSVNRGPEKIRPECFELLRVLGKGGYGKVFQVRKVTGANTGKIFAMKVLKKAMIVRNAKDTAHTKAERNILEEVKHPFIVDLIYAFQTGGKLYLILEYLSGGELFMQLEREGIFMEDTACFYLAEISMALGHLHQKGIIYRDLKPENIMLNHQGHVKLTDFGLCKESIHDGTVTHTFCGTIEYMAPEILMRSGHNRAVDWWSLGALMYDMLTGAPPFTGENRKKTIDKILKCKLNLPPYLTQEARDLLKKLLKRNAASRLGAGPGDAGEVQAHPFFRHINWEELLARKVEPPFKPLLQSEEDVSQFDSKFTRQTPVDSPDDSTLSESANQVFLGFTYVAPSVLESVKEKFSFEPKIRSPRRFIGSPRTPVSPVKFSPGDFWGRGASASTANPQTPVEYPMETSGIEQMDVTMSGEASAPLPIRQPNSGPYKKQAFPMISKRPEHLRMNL

[22] = target: Insulin receptor (Homo sapiens) (UniProt P06213); conditions: Compound concentration 1000.0 nM
[23] = target: Vascular endothelial growth factor receptor 1 (Homo sapiens) (UniProt P17948); conditions: Compound concentration 1000.0 nM
[24] = target: Mitogen-activated protein kinase kinase kinase kinase 1 (Homo sapiens) (UniProt Q92918); conditions: Compound concentration 1000.0 nM
[25] = target: Receptor-interacting serine/threonine-protein kinase 1 (Homo sapiens) (UniProt Q13546); conditions: Compound concentration 1000.0 nM
Receptor-interacting serine/threonine-protein kinase 1 (Homo sapiens), sequence (Q13546 whole entry): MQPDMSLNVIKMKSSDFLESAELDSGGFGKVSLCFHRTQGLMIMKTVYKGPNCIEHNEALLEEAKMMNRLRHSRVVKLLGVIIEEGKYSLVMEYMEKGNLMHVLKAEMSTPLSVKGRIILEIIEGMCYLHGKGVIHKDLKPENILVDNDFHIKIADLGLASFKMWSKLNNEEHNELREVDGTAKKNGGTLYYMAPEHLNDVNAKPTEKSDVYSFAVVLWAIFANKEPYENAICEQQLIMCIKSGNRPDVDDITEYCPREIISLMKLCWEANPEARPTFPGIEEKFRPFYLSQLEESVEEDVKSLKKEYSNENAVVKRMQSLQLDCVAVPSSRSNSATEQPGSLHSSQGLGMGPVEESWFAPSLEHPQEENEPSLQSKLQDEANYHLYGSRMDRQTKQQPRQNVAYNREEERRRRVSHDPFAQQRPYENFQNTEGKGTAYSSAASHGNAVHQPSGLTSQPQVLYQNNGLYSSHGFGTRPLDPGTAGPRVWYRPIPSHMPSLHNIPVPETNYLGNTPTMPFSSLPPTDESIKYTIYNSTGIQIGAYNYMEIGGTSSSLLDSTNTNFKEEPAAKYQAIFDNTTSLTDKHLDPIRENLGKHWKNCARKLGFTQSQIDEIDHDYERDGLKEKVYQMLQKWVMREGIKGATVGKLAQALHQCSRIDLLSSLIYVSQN

[26] = target: Dual specificity protein kinase TTK (Homo sapiens) (UniProt P33981); conditions: Compound concentration 1000.0 nM
[27] = tested on: Proto-oncogene tyrosine-protein kinase receptor Ret (Homo sapiens), P07949 [V804L]; conditions: Compound concentration 1000.0 nM
[28] = target: Activated CDC42 kinase 1 (Homo sapiens) (UniProt Q07912); conditions: Compound concentration 1000.0 nM
Activated CDC42 kinase 1 (Homo sapiens), sequence (Q07912 whole entry, looked up, the tested form may be a part): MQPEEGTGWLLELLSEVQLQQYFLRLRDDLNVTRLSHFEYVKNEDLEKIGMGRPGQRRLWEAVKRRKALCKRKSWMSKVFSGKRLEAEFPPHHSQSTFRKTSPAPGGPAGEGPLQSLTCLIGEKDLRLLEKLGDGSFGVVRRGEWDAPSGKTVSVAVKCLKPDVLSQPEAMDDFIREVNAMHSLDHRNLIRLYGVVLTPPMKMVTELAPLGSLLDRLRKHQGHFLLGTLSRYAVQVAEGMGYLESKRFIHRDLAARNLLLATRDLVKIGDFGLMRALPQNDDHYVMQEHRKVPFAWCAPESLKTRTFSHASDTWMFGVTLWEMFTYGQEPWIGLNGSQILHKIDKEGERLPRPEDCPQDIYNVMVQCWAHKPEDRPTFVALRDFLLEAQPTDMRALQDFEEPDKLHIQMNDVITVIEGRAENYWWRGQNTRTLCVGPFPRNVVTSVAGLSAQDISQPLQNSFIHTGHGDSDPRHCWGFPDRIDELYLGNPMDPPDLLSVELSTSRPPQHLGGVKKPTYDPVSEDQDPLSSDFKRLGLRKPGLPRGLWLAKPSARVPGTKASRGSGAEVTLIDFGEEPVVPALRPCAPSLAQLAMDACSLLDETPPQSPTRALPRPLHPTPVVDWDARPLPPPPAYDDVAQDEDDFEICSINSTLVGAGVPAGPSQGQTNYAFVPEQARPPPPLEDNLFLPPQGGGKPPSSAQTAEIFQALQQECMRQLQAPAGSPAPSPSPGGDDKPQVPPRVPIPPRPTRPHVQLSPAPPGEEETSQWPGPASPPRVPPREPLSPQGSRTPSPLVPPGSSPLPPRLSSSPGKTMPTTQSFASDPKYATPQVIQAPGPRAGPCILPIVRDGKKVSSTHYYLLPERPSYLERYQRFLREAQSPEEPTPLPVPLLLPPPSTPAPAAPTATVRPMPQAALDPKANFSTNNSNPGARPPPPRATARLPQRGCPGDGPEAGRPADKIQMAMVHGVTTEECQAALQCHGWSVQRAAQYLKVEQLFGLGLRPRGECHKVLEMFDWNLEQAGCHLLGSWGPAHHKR

[29] = target: Phosphatidylinositol 3-kinase C2 domain-containing subunit gamma (Homo sapiens) (UniProt O75747); conditions: Compound concentration 1000.0 nM
[30] = target: TGF-beta receptor type-2 (Homo sapiens) (UniProt P37173); conditions: Compound concentration 1000.0 nM
[31] = target: Cyclin-dependent kinase 14 (Homo sapiens) (UniProt O94921); conditions: Compound concentration 1000.0 nM
[32] = target: Cyclin-dependent kinase 13 (Homo sapiens) (UniProt Q14004); conditions: Compound concentration 1000.0 nM
[33] = target: Mitogen-activated protein kinase 10 (Homo sapiens) (UniProt P53779); conditions: Compound concentration 1000.0 nM
[34] = target: Maternal embryonic leucine zipper kinase (Homo sapiens) (UniProt Q14680); conditions: Compound concentration 1000.0 nM

CNC(=O)Nc1ccc2c(c1)CC[C@@]21OC(=O)N(CC(=O)N(Cc2ccc(F)cc2)[C@@H](C)C(F)(F)F)C1=O [A-485]
inactive: residual activity [1] 72% | inhibition [2] 9.82% | residual activity [3] 86% | residual activity [4] 67% | residual activity [5] 91% | residual activity [6] 98% | residual activity [7] 86% | residual activity [8] 100% | inhibition [9] 34.5% | residual activity [10] 86% | residual activity [11] 96% | residual activity [12] 100% | residual activity [13] 79% | inhibition [14] 0% | residual activity [15] 75% | inhibition [16] 14% | residual activity [17] 84% | residual activity [18] 75% | residual activity [19] 90% | residual activity [20] 66% | residual activity [21] 100% | residual activity [22] 81% | residual activity [23] 100% | residual activity [24] 99% | residual activity [25] 100% | residual activity [26] 100% | residual activity [27] 91% | residual activity [28] 90% | residual activity [29] 75% | residual activity [30] 90% | residual activity [31] 79% | residual activity [32] 96% | residual activity [33] 73% | residual activity [34] 91%

CNC(=O)Nc1ccc2c(c1)[C@@]1(CC2)OC(=O)N(CC(=O)N(Cc2ccc(F)cc2)[C@@H](C)C(F)(F)F)C1=O [A-486]
inactive: residual activity [1] 88% | inhibition [2] 11.2% | residual activity [3] 82% | residual activity [4] 68% | residual activity [5] 77% | residual activity [6] 89% | residual activity [7] 93% | residual activity [8] 91% | inhibition [9] 17.7% | residual activity [10] 100% | residual activity [11] 100% | residual activity [12] 95% | residual activity [13] 100% | inhibition [14] 4% | residual activity [15] 83% | inhibition [16] 8% | residual activity [17] 89% | residual activity [18] 100% | residual activity [19] 100% | residual activity [20] 67% | residual activity [21] 100% | residual activity [22] 73% | residual activity [23] 100% | residual activity [24] 90% | residual activity [25] 93% | residual activity [26] 100% | residual activity [27] 94% | residual activity [28] 87% | residual activity [29] 97% | residual activity [30] 95% | residual activity [31] 100% | residual activity [32] 92% | residual activity [33] 67% | residual activity [34] 100%
